Values joined by “and” are separate entries in the source; they are usually repeats but may differ in a detail not shown here. Equal values may be shown once.
Experiments:
ALOMY [1] = test: Pre-emergence herbicidal action against ALOMY; format: in vivo, Alopecurus myosuroides; details: scored visually after about 3 weeks vs untreated controls, 100% = plants have died, 0% = like control plants
Method in brief: (§1)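 Pre-emergence, sandy loam, pots doubly sown. WP/EC formulations + 0.5% additive, 600 L/ha water, sprayed on soil surface; 1280 or 320 g/ha. Greenhouse ~3 wk; visual % effect vs untreated.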

ECHCG = test: Pre-emergence herbicidal action against ECHCG; format: in vivo, Echinochloa crus-galli; details: scored visually after about 3 weeks vs untreated controls, 100% = plants have died, 0% = like control plants
Method in brief: as §1

SETVI = test: Pre-emergence herbicidal action against SETVI; format: in vivo, Setaria viridis; details: 1280 g/ha, scored visually after about 3 weeks vs untreated controls
Method in brief: as §1

AMARE [2] = test: Pre-emergence herbicidal action against AMARE; format: in vivo, Amaranthus retroflexus; details: scored visually after about 3 weeks vs untreated controls
Method in brief: as §1

MATIN [3] = test: Pre-emergence herbicidal action against MATIN; format: in vivo, Matricaria inodora; details: 1280 g/ha, scored visually after about 3 weeks vs untreated controls
Method in brief: as §1

AVEFA [4] = test: Pre-emergence herbicidal action against AVEFA; format: in vivo, Avena fatua; details: scored visually after about 3 weeks vs untreated controls, 100% = plants have died, 0% = like control plants
Description: (§2) Seeds of mono- and dicotyledonous weed plants are placed in plastic pots in sandy loam soil (doubly sown with one species each of mono- or dicotyledonous weed plants per pot) and covered with soil. The compounds of the invention, formulated in the form of wettable powders (WP) or as emulsion concentrates (EC), are then applied onto the surface of the covering soil as aqueous suspension or emulsion with addition of 0.5% additive at a water application rate equivalent to 600 litres per hectare. After the treatment, the pots are placed in a greenhouse and kept under good growth conditions for the trial plants. After about 3 weeks, the effect of the preparations is scored visually in comparison with untreated controls as percentages. For example, 100% activity=the plants have died, 0% activity=like control plants. [table] Tables 4.1-4.15 below show the effects of selected compounds of the general formula (I) according to Tables 1 to 3 on various harmful plants at an application rate corresponding to 1280 or 320 g/ha, which have been obtained by the aforementioned experimental method.

PHBPU [5] = test: Pre-emergence herbicidal action against PHBPU; format: in vivo, Pharbitis purpurea; details: 1280 g/ha, scored visually after about 3 weeks vs untreated controls
Description: as §2

POLCO [6] = test: Pre-emergence herbicidal action against POLCO; format: in vivo, Polygonum convolvulus; details: 320 g/ha, scored visually after about 3 weeks vs untreated controls
Method in brief: as §1

STEME [7] = test: Pre-emergence herbicidal action against STEME; format: in vivo, Stellaria media; details: scored visually after about 3 weeks vs untreated controls
Method in brief: as §1

VIOTR = test: Pre-emergence herbicidal action against VIOTR; format: in vivo, Viola tricolor; details: 1280 g/ha, scored visually after about 3 weeks vs untreated controls
Method in brief: as §1

VERPE [8] = test: Pre-emergence herbicidal action against VERPE; format: in vivo, Veronica persica; details: 320 g/ha, scored visually after about 3 weeks vs untreated controls
Method in brief: as §1

ALOMY [9] = test: Post-emergence herbicidal action against ALOMY; format: in vivo, Alopecurus myosuroides; details: 1280 g/ha, post-emergence at one-leaf stage, rated visually after about 3 weeks vs untreated controls
Method in brief: (§3)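 Greenhouse, sandy loam, one-leaf stage; compound as WP/EC at 1280 or 320 g/ha plus 0.5% additive (600 L/ha). Visual % activity at ~3 weeks relative to untreated plants.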

AVEFA [10] = test: Post-emergence herbicidal action against AVEFA; format: in vivo, Avena fatua; details: 1280 g/ha, post-emergence at one-leaf stage, rated visually after about 3 weeks vs untreated controls
Description: (§4) [table] Seeds of mono- and dicotyledonous weed plants are placed in plastic pots in sandy loam soil (twin sowing with one species each of mono- or dicotyledonous weed plants per pot), covered with soil and cultivated in a greenhouse under controlled growth conditions. 2 to 3 weeks after sowing, the test plants are treated at the one-leaf stage. The compounds of the invention, formulated in the form of wettable powders (WP) or as emulsion concentrates (EC), are applied to the green parts of the plants as aqueous suspension or emulsion with addition of 0.5% additive at a water application rate equivalent to 600 litres per hectare. After the test plants have been kept in the greenhouse under optimum growth conditions for about 3 weeks, the activity of the preparations is rated visually in comparison to untreated controls. For example, 100% activity=the plants have died, 0% activity=like control plants. Tables 5.1-5.16 below show the effects of selected compounds of the general formula (I) according to Tables 1 to 3 on various harmful plants at an application rate corresponding to 1280 or 320 g/ha, which have been obtained by the aforementioned experimental method.

LOLRI = test: Post-emergence herbicidal action against LOLRI; format: in vivo, Lolium rigidum; details: 1280 g/ha, post-emergence at one-leaf stage, rated visually after about 3 weeks vs untreated controls
Description: as §4

AMARE [11] = test: Post-emergence herbicidal action against AMARE; format: in vivo, Amaranthus retroflexus; details: visual rating about 3 weeks after treatment
Method in brief: as §3

MATIN [12] = test: Post-emergence herbicidal action against MATIN; format: in vivo, Matricaria inodora; details: visual rating about 3 weeks after treatment
Method in brief: as §3

PHBPU [13] = test: Post-emergence herbicidal action against PHBPU; format: in vivo, Pharbitis purpurea; details: 320 g/ha, visual rating about 3 weeks after treatment
Method in brief: as §3

POLCO [14] = test: Post-emergence herbicidal action against POLCO; format: in vivo, Polygonum convolvulus; details: 320 g/ha, visual rating about 3 weeks after treatment
Method in brief: as §3

STEME [15] = test: Post-emergence herbicidal action against STEME; format: in vivo, Stellaria media; details: visual rating about 3 weeks after treatment
Method in brief: as §3

VERPE [16] = test: Post-emergence herbicidal action against VERPE; format: in vivo, Veronica persica; details: 320 g/ha, visual rating about 3 weeks after treatment
Method in brief: as §3

HORMU = test: Post-emergence herbicidal action against HORMU; format: in vivo, Hordeum murinum; details: 320 g/ha, visual rating about 3 weeks after treatment
Method in brief: as §3

harmful plants = test: Pre-emergence herbicidal action, summary of Tables 4.1-4.15; format: in vivo; details: result in words
Method in brief: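 Percent herbicidal action (100% = plants dead, 0% = like controls) was assessed visually about 3 weeks after treatment. Application rates of 1280 or 320 g/ha were applied to the covering soil of freshly sown sandy-loam pots, in 600 l/ha water with 0.5% additive, before emergence.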

O=C(O)COc1nn(-c2ccccc2)c(-c2ccc(F)cc2)c1Br [I-057]
100%: Pre-emergence action against AMARE in % (AMARE [2]; 1280 g/ha) | Pre-emergence action against MATIN in % (MATIN [3]) | Pre-emergence action against STEME in % (STEME [7]; 1280 g/ha) | Pre-emergence action against VIOTR in % (VIOTR)
80%: Pre-emergence action at 1280 g/ha against ECHCG in % (ECHCG) | Pre-emergence action at 1280 g/ha against AVEFA in % (AVEFA [4]) | Pre-emergence action against STEME in % (STEME [7]; 320 g/ha) | Post-emergence action against LOLRI in % (LOLRI) | Post-emergence action against AMARE in % (AMARE [11]; 320 g/ha) | Post-emergence action against AMARE in % (AMARE [11]; 1280 g/ha) | Post-emergence action against MATIN in % (MATIN [12]; 320 g/ha) | Post-emergence action against POLCO in % (POLCO [14]) | Post-emergence action against STEME in % (STEME [15]; 320 g/ha) | Post-emergence action against VERPE in % (VERPE [16]) | Post-emergence action against HORMU in % (HORMU)
good herbicidal efficacy: herbicidal efficacy against harmful plants in the case of pre-emergence treatment (harmful plants)
90%: Pre-emergence action at 1280 g/ha against ALOMY in % (ALOMY [1]) | Pre-emergence action against SETVI in % (SETVI) | Pre-emergence action against PHBPU in % (PHBPU [5]) | Pre-emergence action against POLCO in % (POLCO [6]) | Pre-emergence action against VERPE in % (VERPE [8]) | Post-emergence action against ALOMY in % (ALOMY [9]) | Post-emergence action against AVEFA in % (AVEFA [10]) | Post-emergence action against MATIN in % (MATIN [12]; 1280 g/ha) | Post-emergence action against PHBPU in % (PHBPU [13]) | Post-emergence action against STEME in % (STEME [15]; 1280 g/ha)
100% and 90%: Pre-emergence action at 320 g/ha against AMARE in % (AMARE [2]; 320 g/ha, 100% = plants have died, 0% = like control plants)
